Measurements from patent US10770169B2, “Method of providing a treatment to a subject based on a dynamic pathway map” (THE REGENTS OF THE UNIVERSITY OF CALIFORNIA, priority 2010, dated 2020).
Entries after “also recorded” stand apart in the source; their conditions may differ.

What was measured:
Type in all cases: cell-based, human
[1] = tested on: breast cancer cell lines with aberrant vs normal copy number; assay: Association of recurrent copy number changes and response (t-test on GI50); conditions: FDR p<0.2
Text: We used a t-test to assess the association between recurrent copy number changes (at 8q24 (MYC), 11q13 (CCND1), 20q13 (STK15/AURKA)) and drug sensitivity. We combined into a single group cell lines with low or no amplification and compared them to cell lines with high amplification. […] Cell lines for which the GI50 was equal to the maximum concentration tested were omitted from analysis. We omitted compounds where any group had fewer than five samples.

[2] = tested on: panel of 55 breast cancer cell lines; assay: Cell growth inhibition assay (Cell Titer Glo, 72 h, 9 doses; GI50, TGI, LC50); conditions: value is the negative log10 of mol/L
[3] = tested on: luminal, basal, claudin-low and ERBB2AMP breast cancer cell lines; assay: Associations of clinically relevant subtypes and response (non-parametric ANOVA or t-test on GI50 ranks); conditions: for Subtype specificity: Table 6, most sensitive subtype, FDR p<0.20
In short: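 GI50 values were compared between cell-line subtype groups by non-parametric ANOVA or t-test on ranks. P-values from three test sets were combined and FDR-corrected. Significant three-group effects were followed by post-hoc comparison of each group against all others, and FDR p<0.20 counted as significant.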

[4] = 600MPE cell line, censored GI50 values
[5] = AU565 cell line, censored GI50 values
[6] = BT474 cell line, censored GI50 values
[7] = BT483 cell line, censored GI50 values
[8] = CAMA1 cell line, censored GI50 values
[9] = HCC38 cell line, censored GI50 values
[10] = HCC70 cell line, censored GI50 values
[11] = HCC202 cell line, censored GI50 values
[12] = HCC1143 cell line, censored GI50 values
[13] = HCC1187 cell line, censored GI50 values
[14] = HCC1395 cell line, censored GI50 values
[15] = HCC1419 cell line, censored GI50 values
[16] = HCC1428 cell line, censored GI50 values
[17] = HCC1500 cell line, censored GI50 values
[18] = HCC1806 cell line, censored GI50 values
[19] = HCC1937 cell line, censored GI50 values
[20] = HCC1954 cell line, censored GI50 values
[21] = HCC2185 cell line, censored GI50 values
[22] = HCC3153 cell line, censored GI50 values
[23] = MCF7 cell line, censored GI50 values
[24] = MDAMB134VI cell line, censored GI50 values
[25] = MDAMB157 cell line, censored GI50 values
[26] = MDAMB175VII cell line, censored GI50 values
[27] = MDAMB231 cell line, censored GI50 values
[28] = MDAMB361 cell line, censored GI50 values
[29] = MDAMB415 cell line, censored GI50 values
[30] = MDAMB436 cell line, censored GI50 values
[31] = MDAMB453 cell line, censored GI50 values
[32] = MDAMB468 cell line, censored GI50 values
[33] = SKBR3 cell line, censored GI50 values
[34] = SUM149PT cell line, censored GI50 values
[35] = SUM159PT cell line, censored GI50 values
[36] = SUM185PE cell line, censored GI50 values
[37] = SUM1315MO2 cell line, censored GI50 values

With `N.N.O=C([O-])C1(C(=O)[O-])CCC1.[Pt+2]` [Carboplatin] the “association of response with amplification at 11q13 (CCND1)” value [1] was “associated with sensitivity; also recorded: associated with response”, the GI50 [2, 4] was 3.82 and the GI50 [2, 5] was 4.94. For the same compound, the GI50 [2, 6] was 3.98, the GI50 [2, 7] was 5.82 and the GI50 ([2]; BT549 cell line, censored GI50 values) was 4.58. For the same compound, the GI50 [2, 8] was 3.72, the GI50 [2, 9] was 4.76 and the GI50 [2, 10] was 4.82. For the same compound, the GI50 [2, 11] was 4.44, the GI50 [2, 12] was 3.85 and the GI50 [2, 13] was 4.66. The GI50 [2, 14] was 5.00, the GI50 [2, 15] was 4.15 and the GI50 [2, 16] was 3.86. It also gave a GI50 [2, 17] of 4.69, a GI50 [2, 18] of 4.80 and a GI50 [2, 19] of 4.44. For the same compound, the GI50 [2, 20] was 4.37, the GI50 [2, 21] was 4.69 and the GI50 [2, 22] was 4.45. For the same compound, the GI50 ([2]; LY2 cell line, censored GI50 values) was 4.39, the GI50 [2, 23] was 3.77 and the GI50 [2, 24] was 3.73. It also gave a GI50 [2, 25] of 4.07, a GI50 [2, 26] of 4.44 and a GI50 [2, 27] of 4.09. It also gave a GI50 [2, 28] of 4.34, a GI50 [2, 29] of 3.73 and a GI50 [2, 30] of 4.18. The GI50 [2, 31] was 4.23, the GI50 [2, 32] was 4.31 and the GI50 [2, 33] was 4.87. The GI50 ([2]; SUM52PE cell line, censored GI50 values) was 4.71, the GI50 [2, 34] was 4.87 and the GI50 [2, 35] was 4.55. It also gave a GI50 [2, 36] of 3.90, a GI50 [2, 37] of 4.56 and a GI50 ([2]; T47D cell line, censored GI50 values) of 3.95. For the same compound, the GI50 ([2]; UACC812 cell line, censored GI50 values) was 4.81, the GI50 ([2]; ZR75B cell line, censored GI50 values) was 3.52 and the GI50 ([2]; ZR751 cell line, censored GI50 values) was 4.07. The GI50 ([2]; ZR7530 cell line, censored GI50 values) was 4.55, the GI50 ([2]; cell line 600MPE) was 3.82 and the GI50 ([2]; cell line AU565) was 4.94. For the same compound, the GI50 ([2]; cell line BT474) was 3.98, the GI50 ([2]; cell line BT483) was 5.82 and the GI50 ([2]; cell line BT549) was 4.58. The GI50 ([2]; cell line CAMA1) was 3.72, the GI50 ([2]; cell line HCC38) was 4.76 and the GI50 ([2]; cell line HCC70) was 4.82. It also gave a GI50 ([2]; cell line HCC202) of 4.44, a GI50 ([2]; cell line HCC1143) of 3.85 and a GI50 ([2]; cell line HCC1187) of 4.66. It also gave a GI50 ([2]; cell line HCC1395) of 5.00, a GI50 ([2]; cell line HCC1419) of 4.15 and a GI50 ([2]; cell line HCC1428) of 3.86. The GI50 ([2]; cell line HCC1500) was 4.69, the GI50 ([2]; cell line HCC1806) was 4.80 and the GI50 ([2]; cell line HCC1937) was 4.44. The GI50 ([2]; cell line HCC1954) was 4.37, the GI50 ([2]; cell line HCC2185) was 4.69 and the GI50 ([2]; cell line HCC3153) was 4.45. It also gave a GI50 ([2]; cell line LY2) of 4.39, a GI50 ([2]; cell line MCF7) of 3.77 and a GI50 ([2]; cell line MDAMB134V) of 3.73. The GI50 ([2]; cell line MDAMB157) was 4.07, the GI50 ([2]; cell line MDAMB175V) was 4.44 and the GI50 ([2]; cell line MDAMB231) was 4.09. The GI50 ([2]; cell line MDAMB361) was 4.34, the GI50 ([2]; cell line MDAMB415) was 3.73 and the GI50 ([2]; cell line MDAMB436) was 4.18. The GI50 ([2]; cell line MDAMB453) was 4.23, the GI50 ([2]; cell line MDAMB468) was 4.31 and the GI50 ([2]; cell line SKBR3) was 4.87. The GI50 ([2]; cell line SUM52PE) was 4.71, the GI50 ([2]; cell line SUM149PT) was 4.87 and the GI50 ([2]; cell line SUM159PT) was 4.55. It also gave a GI50 ([2]; cell line SUM185PE) of 3.90, a GI50 ([2]; cell line SUM1315MO) of 4.56 and a GI50 ([2]; cell line T47D) of 3.95. The GI50 ([2]; cell line UACC812) was 4.81, the GI50 ([2]; cell line UACC893) was 3.04 and the GI50 ([2]; cell line ZR75B) was 3.52. The GI50 ([2]; cell line ZR751) was 4.07, the GI50 ([2]; cell line ZR7530) was 4.55 and the Subtype specificity [3] was “Basal + Claudin-low”.
`CCn1cc(-c2ccnc3[nH]c(-c4cccc(CN(C)C)c4)cc23)c(-c2ccc(NC(=O)N(C)C)cc2)n1` [GSK1070916] was tested, and the “association of response with amplification at 11q13 (CCND1)” value [1] was “associated with sensitivity; also recorded: associated with response”, the “association of response with amplification at 20q13 (STK15/AURKA)” value [1] was “associated with resistance, rather than sensitivity” and the GI50 [2, 4] was 5.10. The GI50 [2, 5] was 5.52, the GI50 [2, 6] was 5.19 and the GI50 [2, 7] was 5.35. It also gave a GI50 [2, 8] of 5.05, a GI50 [2, 9] of 6.44 and a GI50 [2, 10] of 6.59. The GI50 [2, 11] was 6.03, the GI50 [2, 12] was 5.51 and the GI50 [2, 13] was 7.95. For the same compound, the GI50 [2, 14] was 6.24, the GI50 [2, 15] was 5.18 and the GI50 [2, 16] was 5.19. The GI50 [2, 17] was 5.19, the GI50 [2, 18] was 5.16 and the GI50 [2, 19] was 5.42. For the same compound, the GI50 [2, 20] was 5.56, the GI50 [2, 21] was 6.34 and the GI50 [2, 22] was 4.95. The GI50 [2, 23] was 5.06, the GI50 [2, 24] was 5.57 and the GI50 [2, 25] was 5.95. For the same compound, the GI50 [2, 26] was 5.07, the GI50 [2, 27] was 5.78 and the GI50 [2, 28] was 5.19. For the same compound, the GI50 [2, 29] was 5.76, the GI50 [2, 30] was 7.01 and the GI50 [2, 31] was 5.51. For the same compound, the GI50 [2, 32] was 7.89, the GI50 [2, 33] was 5.29 and the GI50 [2, 34] was 5.48. The GI50 [2, 35] was 5.77, the GI50 [2, 36] was 5.94 and the GI50 [2, 37] was 5.89. For the same compound, the GI50 ([2]; cell line 600MPE) was 5.10, the GI50 ([2]; cell line AU565) was 5.52 and the GI50 ([2]; cell line BT474) was 5.19. The GI50 ([2]; cell line BT483) was 5.35, the GI50 ([2]; cell line CAMA1) was 5.05 and the GI50 ([2]; cell line HCC38) was 6.44. The GI50 ([2]; cell line HCC70) was 6.59, the GI50 ([2]; cell line HCC202) was 6.03 and the GI50 ([2]; cell line HCC1143) was 5.51. The GI50 ([2]; cell line HCC1187) was 7.95, the GI50 ([2]; cell line HCC1395) was 6.24 and the GI50 ([2]; cell line HCC1419) was 5.18. It also gave a GI50 ([2]; cell line HCC1428) of 5.19, a GI50 ([2]; cell line HCC1500) of 5.19 and a GI50 ([2]; cell line HCC1806) of 5.16. It also gave a GI50 ([2]; cell line HCC1937) of 5.42, a GI50 ([2]; cell line HCC1954) of 5.56 and a GI50 ([2]; cell line HCC2185) of 6.34. The GI50 ([2]; cell line HCC3153) was 4.95, the GI50 ([2]; cell line MCF7) was 5.06 and the GI50 ([2]; cell line MDAMB134V) was 5.57. It also gave a GI50 ([2]; cell line MDAMB157) of 5.95, a GI50 ([2]; cell line MDAMB175V) of 5.07 and a GI50 ([2]; cell line MDAMB231) of 5.78. It also gave a GI50 ([2]; cell line MDAMB361) of 5.19, a GI50 ([2]; cell line MDAMB415) of 5.76 and a GI50 ([2]; cell line MDAMB436) of 7.01. It also gave a GI50 ([2]; cell line MDAMB453) of 5.51, a GI50 ([2]; cell line MDAMB468) of 7.89 and a GI50 ([2]; cell line SKBR3) of 5.29. For the same compound, the GI50 ([2]; cell line SUM52PE) was 6.84, the GI50 ([2]; cell line SUM149PT) was 5.48 and the GI50 ([2]; cell line SUM159PT) was 5.77. It also gave a GI50 ([2]; cell line SUM185PE) of 5.94, a GI50 ([2]; cell line SUM1315MO) of 5.89 and a GI50 ([2]; cell line UACC812) of 4.51. The GI50 ([2]; cell line UACC893) was 5.06, the GI50 ([2]; cell line ZR75B) was 5.75 and the GI50 ([2]; cell line ZR751) was 4.94. For the same compound, the GI50 ([2]; cell line ZR7530) was 4.71, the “subtype-specific response (sensitivity by transcriptional subtype)” value ([3]; GI50 across subtypes) was “more active against basal and claudin-low cell lines” and the Subtype specificity [3] was “Claudin-low”.
